Measured values from PMC5689459 (European journal of medicinal chemistry, 2010).
Read-outs that look alike come from different tables or passages of the source. Where a SMILES comes first, the peptide text is derived from it. [ ]: non-standard residue; d: D form. d(β3hP) = O=C(O)C[C@H]1CCCN1; β3hP = O=C(O)C[C@@H]1CCCN1

Experiments:
[1] = target: T1, μ-opioid receptor (Homo sapiens, UniProt P35372); experiment: Radioligand competition binding, displacement of [3H]DAMGO; conditions: for Selectivity Kiδ/Kiμ: ratio of δ and μ binding Ki
[2] = target: κ-opioid receptor (Homo sapiens, UniProt P41145); experiment: Radioligand competition binding, displacement of [3H]U69,593
[3] = target: T2, δ-opioid receptor (Homo sapiens, UniProt P41143); experiment: Radioligand competition binding, displacement of [3H]DPDPE
[4] = target: δ-opioid receptors (MVD) (Mus musculus, UniProt P32300); experiment: MVD in vitro tissue bioassay; format: biochemical
[5] = target: μ-opioid receptors (GPI); experiment: GPI/LMMP in vitro tissue bioassay; format: biochemical, guinea pig; conditions: read-out: Bioassay GPI (IC50); ± S.E.M.
[6] = target: T2, δ-opioid receptor; conditions: read-out: Receptor affinity Kiδ; cited from earlier work
[7] = target: T1, μ-opioid receptor; conditions: ratio of δ and μ binding Ki; cited from earlier work

Compound | Ki [1] [µM] | Ki [2] [µM] | Ki [3] [µM] | Selectivity Kiδ/Kiμ [1] | Bioassay MVD, % at 1 μM [4] [% at 1 μM] | IC50 [5] [µM] | Ki [6] [µM] | Selectivity Kiδ/Kiμ [7]
NC(=O)[C@H](Cc1ccccc1)NC(=O)[C@H](Cc1ccccc1)NC(=O)C[C@@H]1CCCN1C(=O)[C@@H](N)Cc1ccc(O)cc1 [Compound 6a, H–Tyr–(S)-HPro–Phe–Phe–NH2] | 0.058 ± 0.005 | 0.99 ± 0.012 | – | – | – | – | – | –
NC(=O)[C@H](Cc1ccccc1)NC(=O)[C@H](Cc1ccccc1)NC(=O)C[C@H]1CCCN1C(=O)[C@@H](N)Cc1ccc(O)cc1 [Compound 6b, H–Tyr–(R)-HPro–Phe–Phe–NH2] | 0.293 ± 0.027 | 10 ± 1.2 | > 10 | > 34 | – | – | – | –
NC(=O)[C@H](Cc1ccccc1)NC(=O)[C@H](Cc1ccccc1)NS(=O)(=O)C[C@@H]1CCCN1C(=O)[C@@H](N)Cc1ccc(O)cc1 [Compound 6c, H–Tyr–(S)-HPrs–Phe–Phe–NH2] | 0.1 ± 0.008 | 4.8 ± 0.367 | – | – | – | – | – | –
NC(=O)[C@@H]1CCCN1C(=O)[C@H](Cc1ccccc1)NC(=O)C[C@@H]1CCCN1C(=O)[C@@H](N)Cc1ccc(O)cc1 [Compound 7a, H–Tyr–(S)-HPro–Phe–Pro–NH2] (H-Y[β3hP]FP-NH2) | 6.1 ± 0.553 | 4.4 ± 0.356 | > 10 | – | 33.7 | 1.1 ± 0.115 | – | –
NC(=O)[C@@H]1CCCN1C(=O)[C@H](Cc1ccccc1)NC(=O)C[C@H]1CCCN1C(=O)[C@@H](N)Cc1ccc(O)cc1 [Compound 7b, H–Tyr–(R)-HPro–Phe–Pro–NH2] (H-Y[d(β3hP)]FP-NH2) | 0.03 ± 0.004 | 10 ± 0.982 | > 10 | > 333 | – | 0.017 ± 0.003 | – | –
Tyr–Pro–Phe–Pro–NH2 (YPFP) [Morphyceptin] | – | – | – | – | – | – | > 10 | –
Tyr–Pro–Phe–Pro–NH2 [Morphyceptin] | – | – | – | – | – | – | – | > 74.1
